Positions of bridges follow the written chain, without caps; N, C: chain ends. Residues, ends and D or L forms follow the SMILES beside them.
Tests used:
B. subtilis KCTC1021 = experiment: Ultrasensitive radial diffusion assay (URDA), MEC; type: cell-based, Bacillus subtilis; settings: B. subtilis KCTC1021, Gram +, 10 mM phosphate buffer pH 6.6, 37 °C, X-intercept of clearing zone vs log10 concentration, triplicate, averaged
Method: (§1) The antimicrobial activity of the AOD analogs was assessed with an ultrasensitive radial diffusion assay (URDA), as described previously. The antimicrobial activity of the analogs (from 31.3 to 1000 μg/mL, 5 μL volume) was tested against several bacteria, including Bacillus subtilis KCTC1021, Streptococcus mutans KCCM40105, Aeromonas hydrophila KCTC2358, Escherichia coli D31, E. coli ML35p, Pseudomonas aeruginosa KCTC2004, Salmonella enterica KCTC2514, and Shigella sonnei KCTC2009. In addition, Cutibacterium acnes KCTC3314, Staphylococcus epidermidis KCTC1917, and Candida albicans KCTC7965 were used for the anti-acne activity test. All except C. acnes KCTC3314 were grown overnight for 18 h in tryptic soy broth (TSB; for bacteria) or Sabouraud dextrose broth (SDB; for C. albicans) at the appropriate temperature (25 °C for A. hydrophila, 37 °C for the others). C. acnes was grown for 72 h in reinforced clostridial medium (RCM) under anaerobic conditions with an anaerobic gas-generating pouch (GasPak EZ; Becton Dickinson and Company, Sparks, MD, USA) at 37 °C. Following overnight or 72-h incubation, the bacterial and C. albicans suspensions were diluted to a McFarland turbidity standard level of 0.5 (Vitek Colorimeter #52-1210; Hach, Loveland, CO, USA) corresponding to approximately 10^8 colony forming units (CFU)/mL for bacteria and 10^6 CFU/mL for C. albicans. Diluted bacterial or C. albicans suspension (0.5 mL) was added to 9.5 mL underlay gel containing 5 × 10^6 or 5 × 10^4 CFU/mL in 10 mM phosphate buffer (pH 6.6) with 0.03% TSB (or RCM) or 0.03% SDB and 1% Type I low-electroendosmosis agarose. The AOD analogs were serially diluted two-fold in 5 µL acidified water (0.01% acetic acid; HAc) and each dilution was added to 2.5-mm diameter wells in the 1-mm thick underlay gel. After incubation for 3 h at either 25 °C (for A. hydrophila) or 37 °C (for the others), the bacterial or yeast suspension was overlaid with 10 mL double-strength overlay gel containing 6% TSB, RCM, or SDB with 10 mM phosphate buffer (pH 6.6) in 1% agarose. Plates were incubated for an additional 18–24 h (72 h for C. acnes) and the clearing zone diameters were measured. After subtracting the diameter of the well (2.5 mm), the clearing zone diameter was expressed in units (0.1 mm = 1 U).
(§2) The minimal effective concentration (MEC; μg/mL) of the AOD analogs was calculated as the X-intercept of a plot of clearing zone diameter units against the log10 of the peptide concentration. Piscidin 1, an α-helical AMP isolated from hybrid striped bass (Morone saxatilis × Morone chrysops) was used as a positive control.

C. acnes KCTC3314 = experiment: Ultrasensitive radial diffusion assay (URDA), MEC; type: cell-based, Cutibacterium acnes; settings: C. acnes KCTC3314, Gram +, anaerobic, RCM, 72 h, 37 °C, triplicate, averaged
Method: as §1, §2

S. epidermidis KCTC1917 = experiment: Ultrasensitive radial diffusion assay (URDA), MEC; type: cell-based, Staphylococcus epidermidis; settings: S. epidermidis KCTC1917, Gram +, pH 6.6, 37 °C, triplicate, averaged
Method: as §1, §2

S. mutans KCCM40105 = experiment: Ultrasensitive radial diffusion assay (URDA), MEC; type: cell-based, Streptococcus mutans; settings: S. mutans KCCM40105, Gram +, pH 6.6, 37 °C, triplicate, averaged
Method: as §1, §2

A. hydrophila KCTC2358 = experiment: Ultrasensitive radial diffusion assay (URDA), MEC; type: cell-based, Aeromonas hydrophila; settings: A. hydrophila KCTC2358, Gram -, pH 6.6, 25 °C, triplicate, averaged
Method: as §1, §2

E. coli D31 = experiment: Ultrasensitive radial diffusion assay (URDA), MEC; type: cell-based, Escherichia coli; settings: E. coli D31, Gram -, pH 6.6, 37 °C, triplicate, averaged
Method: as §1, §2

E. coli ML35p = experiment: Ultrasensitive radial diffusion assay (URDA), MEC; type: cell-based, Escherichia coli; settings: Gram -, pH 6.6, 37 °C, triplicate, averaged
Method: as §1, §2

P. aeruginosa KCTC2004 = experiment: Ultrasensitive radial diffusion assay (URDA), MEC; type: cell-based, Pseudomonas aeruginosa; settings: P. aeruginosa KCTC2004, Gram -, pH 6.6, 37 °C, triplicate, averaged
Method: as §1, §2

S. enterica KCTC2514 = experiment: Ultrasensitive radial diffusion assay (URDA), MEC; type: cell-based, Salmonella enterica; settings: S. enterica KCTC2514, Gram -, pH 6.6, 37 °C, triplicate, averaged
Method: as §1, §2

S. sonnei KCTC2009 = experiment: Ultrasensitive radial diffusion assay (URDA), MEC; type: cell-based, Shigella sonnei; settings: S. sonnei KCTC2009, Gram -, pH 6.6, 37 °C, triplicate, averaged
Method: as §1, §2

C. albicans KCTC7965 = experiment: Ultrasensitive radial diffusion assay (URDA), MEC; type: cell-based, Candida albicans; settings: C. albicans KCTC7965, yeast, SDB, pH 6.6, 37 °C, triplicate, averaged
Method: as §1, §2

100-bp DNA ladder = experiment: DNA binding assay (electrophoretic mobility shift); settings: 1 μg analog with 0.2 μg 100-bp DNA ladder, 37 °C, 60 min, 1.8% agarose gel with EtBr
Method: To evaluate the binding ability of the AOD analogs to intracellular components, a DNA binding assay was performed as previously described with minor modifications. The DNA-binding ability of the AOD analogs was assessed through observation of the inhibition of migration of DNA bands through agarose gels. A commercial 100-bp DNA ladder (0.2 μg) (Bioneer Corp., Daejeon, South Korea) was mixed with each analog (1 μg) in 0.01% acetic acid, and the resulting mixture was incubated at 37 °C for 60 min and then electrophoresed on 1.8% agarose gels containing 0.5 μg/mL ethidium bromide (EtBr). HAc (0.01%) was used as a negative control.
To determine the concentration required for the interaction of AOD analogs with DNA, a DNA binding assay was performed with various mixing ratios of analog A3 (0.25–1.0 μg/mL) and 100-bp DNA ladder (0.1–0.4 μg), as described above.

[1] = system: 100-bp DNA ladder and DNA polymerase; experiment: Competitive binding between DNA and DNA polymerase; settings: 1 μg peptide, 0.2 μg 100-bp DNA ladder, DNA polymerase 1.0 μL (5 units/μL), 37 °C, 60 min
Method: To assess the preferential binding ability of the AOD analogs to DNA or DNA polymerase, a competitive binding assay was performed. Briefly, AOD analog was added to a reaction mixture containing DNA or DNA polymerase and incubated for 60 min at 37 °C. […] Piscidin 1 and 0.01% HAc were the positive and negative controls, respectively.

[2] = system: E. coli DH5α genomic DNA (16S ribosomal gene); experiment: DNA amplification (PCR) inhibition assay; type: biochemical, Escherichia coli; settings: 1.5 µg of each analog, 0.2 µg E. coli DH5α gDNA, 30 cycles
Method: To determine whether AOD analogs target DNA amplification, the ability of the analogs to inhibit DNA amplification was assessed using E. coli DH5α genomic DNA (gDNA). Total gDNA was extracted using the phenol–chloroform method, as described previously. To assess the inhibition of DNA amplification, 1.5 µg AOD analog was added to the polymerase chain reaction (PCR) mixture. The PCR solution consisted of 0.2 µg purified gDNA, 5 µL 10× PCR buffer with MgCl2, 4 µL of each dNTP at 2.5 mM, 0.25 μL Ex Taq polymerase (Takara Bio, Shiga, Japan), 2.0 pmol each of primers 27F (5′-[…]-3′) and 1492R (5′-TACGGCTACCTTGTTACGA-CTT-3′), and up to 50 µL sterile distilled water. The PCR thermal cycling conditions were as follows: initial denaturation at 94 °C for 5 min; 30 cycles of 94 °C for 30 s, 55 °C for 30 s, and 72 °C for 2 min; and a final extension for 10 min at 72 °C. PCR was conducted using a Type 9700 Thermal Cycler (Perkin-Elmer, Norwalk City, CA, USA). The PCR products were confirmed through 1.5% agarose gel electrophoresis with 0.5 μg/mL EtBr. Piscidin 1 was used as a positive control and 0.01% HAc was used as a negative control.

V. parahaemolyticus gDNA = experiment: Bacterial gDNA binding (electrophoretic mobility shift); parameters: species or system Vibrio parahaemolyticus; settings: 1 μg of analog with V. parahaemolyticus gDNA, agarose gel
Method: To evaluate the binding ability of the AOD analogs to intracellular components, a DNA binding assay was performed as previously described with minor modifications. The DNA-binding ability of the AOD analogs was assessed through observation of the inhibition of migration of DNA bands through agarose gels. […] HAc (0.01%) was used as a negative control.

[3] = system: tested strains (bacteria and the yeast C. albicans); experiment: URDA, overall antimicrobial activity; type: cell-based; settings: all tested strains
Method: The antimicrobial activity of the AOD analogs was assessed with an ultrasensitive radial diffusion assay (URDA), as described previously. The antimicrobial activity of the analogs (from 31.3 to 1000 μg/mL, 5 μL volume) was tested against several bacteria, including Bacillus subtilis KCTC1021, Streptococcus mutans KCCM40105, Aeromonas hydrophila KCTC2358, Escherichia coli D31, E. coli ML35p, Pseudomonas aeruginosa KCTC2004, Salmonella enterica KCTC2514, and Shigella sonnei KCTC2009. In addition, Cutibacterium acnes KCTC3314, Staphylococcus epidermidis KCTC1917, and Candida albicans KCTC7965 were used for the anti-acne activity test. All except C. acnes KCTC3314 were grown overnight for 18 h in tryptic soy broth (TSB; for bacteria) or Sabouraud dextrose broth (SDB; for C. albicans) at the appropriate temperature (25 °C for A. hydrophila, 37 °C for the others). C. acnes was grown for 72 h in reinforced clostridial medium (RCM) under anaerobic conditions with an anaerobic gas-generating pouch (GasPak EZ; Becton Dickinson and Company, Sparks, MD, USA) at 37 °C. […] Plates were incubated for an additional 18–24 h (72 h for C. acnes) and the clearing zone diameters were measured. […]
The minimal effective concentration (MEC; μg/mL) of the AOD analogs was calculated as the X-intercept of a plot of clearing zone diameter units against the log10 of the peptide concentration. […]

Compound	Minimal Effective Concentration (B. subtilis KCTC1021)	Minimal Effective Concentration (C. acnes KCTC3314)	Minimal Effective Concentration (S. epidermidis KCTC1917)	Minimal Effective Concentration (S. mutans KCCM40105)	Minimal Effective Concentration (A. hydrophila KCTC2358)	Minimal Effective Concentration (E. coli D31)	Minimal Effective Concentration (E. coli ML35p)	Minimal Effective Concentration (P. aeruginosa KCTC2004)	Minimal Effective Concentration (S. enterica KCTC2514)	Minimal Effective Concentration (S. sonnei KCTC2009)	Minimal Effective Concentration (C. albicans KCTC7965)	electrophoretic mobility of the DNA (DNA-binding ability) (100-bp DNA ladder)	competitive binding between DNA and DNA polymerase (electrophoretic mobility of DNA) [1]	inhibition of DNA amplification (PCR) [2]	electrophoretic mobility of V. parahaemolyticus gDNA (V. parahaemolyticus gDNA)	antimicrobial activity (in words) [3]
CC(C)C[C@@H]1NC(=O)[C@H](CCCNC(=N)N)NC(=O)[C@H](CC(C)C)NC(=O)[C@H](CCCNC(=N)N)NC(=O)[C@H](Cc2c[nH]c3ccccc23)NC(=O)[C@H](CCCNC(=N)N)NC(=O)[C@@H](N)CSSC[C@@H](C(=O)O)NC(=O)[C@H](CCCNC(=N)N)NC1=O [Analog A2] (H-CRWRLRLRC-OH; disulfide 1-9)	3.8 µg/mL	>100.0 µg/mL	24.0 µg/mL	9.9 µg/mL	14.0 µg/mL	2.0 µg/mL	13.0 µg/mL	7.6 µg/mL	20.0 µg/mL	18.0 µg/mL	>125.0 µg/mL	inhibited	inhibited	did not inhibit		
N=C(N)NCCC[C@@H]1NC(=O)[C@H](CCCNC(=N)N)NC(=O)[C@H](Cc2c[nH]c3ccccc23)NC(=O)CNC(=O)[C@H](Cc2c[nH]c3ccccc23)NC(=O)[C@H](CCCNC(=N)N)NC(=O)[C@H](CCCNC(=N)N)NC(=O)[C@@H](N)CSSC[C@@H](C(N)=O)NC1=O [Analog A4] (H-CRRWGWRRC-NH2; disulfide 1-9)	2.5 µg/mL	27.1 µg/mL	15.8 µg/mL	10.5 µg/mL		5.7 µg/mL	2.2 µg/mL	29.5 µg/mL			17.2 µg/mL	inhibited	inhibited	partially or completely inhibited	inhibited	
CC(=O)N[C@H]1CSSC[C@@H](C(N)=O)NC(=O)[C@H](CCCNC(=N)N)NC(=O)[C@H](CC(C)C)NC(=O)[C@H](CCCNC(=N)N)NC(=O)[C@H](CCCNC(=N)N)NC(=O)[C@H](Cc2c[nH]c3ccccc23)NC(=O)CNC(=O)[C@H](C)NC1=O [Analog A1] (Ac-CAGWRRLRC-NH2; disulfide 1-9)	14.0 µg/mL	>100.0 µg/mL	>100.0 µg/mL	68.0 µg/mL	17.0 µg/mL	42.0 µg/mL	>100.0 µg/mL	15.0 µg/mL	24.0 µg/mL	40.0 µg/mL	>125.0 µg/mL	inhibited	inhibited	partially or completely inhibited		much weaker antimicrobial activity than the other analogs
CC(C)C[C@@H]1NC(=O)[C@H](CO)NC(=O)CNC(=O)[C@H](C)NC(=O)[C@@H](N)CSSC[C@@H](C(=O)O)NC(=O)[C@H]([C@@H](C)O)NC(=O)[C@H](CC(C)C)NC(=O)[C@H](CCCNC(=N)N)NC1=O [Analog A0] (H-CAGSLRLTC-OH; disulfide 1-9)	>100.0 µg/mL	>100.0 µg/mL	>100.0 µg/mL	>100.0 µg/mL	>100.0 µg/mL	>100.0 µg/mL	>100.0 µg/mL	>100.0 µg/mL	>100.0 µg/mL	>100.0 µg/mL	>125.0 µg/mL					no activity against any of the tested strains
